# Active and inactive are the calls of the source. No cut-off for these calls is given here.
# How the values were obtained:
# [1] = test system: PANC-1; assay: Preferential cytotoxicity against human PANC-1 cells in nutrient-deprived medium measured after 24 hrs by WST-8 cell counting analysis; format: functional
# [2] = test system: MIA PaCa-2; assay: Antitumor activity against human MIA PaCa-2 cells xenografted in athymic BALB/c-nu mouse assessed as fold change in D-glucosamine 6-phosphate level in tumor at 10 mg/kg/day, ip administered five times per week for 4 weeks by LC-MS analysis; format: functional
# [3] = test system: MIA PaCa-2; assay: Antitumor activity against human MIA PaCa-2 cells xenografted in athymic BALB/c-nu mouse assessed as fold change in tyrosine level in tumor at 10 mg/kg/day, ip administered five times per week for 4 weeks by LC-MS analysis; format: functional
# [4] = test system: PANC-1; assay: Antimetastatic activity in human PANC-1 cells in DMEM media assessed as inhibition of colony formation at 40 uM incubated for 24 hrs followed by replacement with fresh medium and measured after 10 days by crystal violet staining-based assay relative to control; format: functional
# [5] = test system: MIA PaCa-2; assay: Antimetastatic activity in human MIA PaCa-2 cells in DMEM media assessed as inhibition of colony formation at 40 uM incubated for 24 hrs followed by replacement with fresh medium and measured after 10 days by crystal violet staining-based assay relative to control; format: functional
# [6] = Toxicity in athymic BALB/c-nu mouse xenografted with human MIA PaCa-2 cells assessed as body weight loss at 2 to 10 mg/kg/day, ip administered five times per week for 4 weeks; format: organism-based; settings: in vivo, 672 h, dose 2-10 mg/kg/day
# [7] = test system: MIA PaCa-2; assay: Antitumor activity against human MIA PaCa-2 cells xenografted in athymic BALB/c-nu mouse assessed as tumor growth inhibition at 2 mg/kg/day, ip administered five times per week for 4 weeks relative to control; format: functional; settings: MIA PaCa-2, 672 h, read-out: TGI
# [8] = test system: MIA PaCa-2; assay: Antitumor activity against human MIA PaCa-2 cells xenografted in athymic BALB/c-nu mouse assessed as tumor wet weight at 10 mg/kg/day, ip administered five times per week for 4 weeks (reference value: 368 mg); format: functional
# [9] = test system: MIA PaCa-2; assay: Antitumor activity against human MIA PaCa-2 cells xenografted in athymic BALB/c-nu mouse assessed as reduction in LC3-II level in tumor at 2 to 10 mg/kg/day, ip administered five times per week for 4 weeks by immunohistochemistry analysis; format: functional, organism-based; settings: dose 2-10 mg/kg/day
# [10] = test system: MIA PaCa-2; assay: Antitumor activity against human MIA PaCa-2 cells xenografted in athymic BALB/c-nu mouse assessed as fold change in 4-(methylthio)-2-oxobutyricacid level in tumor at 10 mg/kg/day, ip administered five times per week for 4 weeks by LC-MS analysis; format: functional
# [11] = test system: MIA PaCa-2; assay: Antitumor activity against human MIA PaCa-2 cells xenografted in athymic BALB/c-nu mouse assessed as fold change in serine level in tumor at 10 mg/kg/day, ip administered five times per week for 4 weeks by LC-MS analysis; format: functional
# [12] = test system: PANC-1; assay: Inhibition of Akt/mTOR signaling pathway in human PANC-1 cells in DMEM media assessed as reduction in AKT phosphorylation at S473 residue at 5 to 20 uM measured after 6 hrs by Western blot analysis; format: cell-based; settings: dose 5-20 µM
# [13] = test system: PANC-1; assay: Inhibition of autophagy in human PANC-1 cells in DMEM medium assessed as downregulation of LC3 protein expression at 5 to 20 uM measured after 6 hrs by Western blot analysis; format: functional, cell-based; settings: dose 5-20 µM
# [14] = test system: MIA PaCa-2; assay: Inhibition of Akt/mTOR signaling pathway in human MIA PaCa-2 cells in DMEM media assessed as reduction in mTOR phosphorylation at S2481 residue at 5 to 20 uM measured after 6 hrs by Western blot analysis; format: cell-based; settings: dose 5-20 µM
# [15] = test system: MIA PaCa-2; assay: Antitumor activity against human MIA PaCa-2 cells xenografted in athymic BALB/c-nu mouse assessed as fold change in 1-aminocyclopropanecarboxylicacid level in tumor at 10 mg/kg/day, ip administered five times per week for 4 weeks by LC-MS analysis; format: functional
# [16] = test system: MIA PaCa-2; assay: Antitumor activity against human MIA PaCa-2 cells xenografted in athymic BALB/c-nu mouse assessed as fold change in 2,6-diaminopimelicacid level in tumor at 10 mg/kg/day, ip administered five times per week for 4 weeks by LC-MS analysis; format: functional
# [17] = test system: MIA PaCa-2; assay: Antitumor activity against human MIA PaCa-2 cells xenografted in athymic BALB/c-nu mouse assessed as fold change in cytidine 5'-monophosphate-N-acetylneuraminic acid level in tumor at 10 mg/kg/day, ip administered five times per week for 4 weeks by LC-MS analysis; format: functional
# [18] = test system: MIA PaCa-2; assay: Antitumor activity against human MIA PaCa-2 cells xenografted in athymic BALB/c-nu mouse assessed as fold change in cytidine diphosphate ethanolamine level in tumor at 10 mg/kg/day, ip administered five times per week for 4 weeks by LC-MS analysis; format: functional
# [19] = test system: MIA PaCa-2; assay: Antitumor activity against human MIA PaCa-2 cells xenografted in athymic BALB/c-nu mouse assessed as fold change in cytosine level in tumor at 10 mg/kg/day, ip administered five times per week for 4 weeks by LC-MS analysis; format: functional
# [20] = test system: MIA PaCa-2; assay: Antitumor activity against human MIA PaCa-2 cells xenografted in athymic BALB/c-nu mouse assessed as fold change in D-ribulose5-phosphate level in tumor at 10 mg/kg/day, ip administered five times per week for 4 weeks by LC-MS analysis; format: functional
# [21] = test system: MIA PaCa-2; assay: Antitumor activity against human MIA PaCa-2 cells xenografted in athymic BALB/c-nu mouse assessed as fold change in hypoxanthine level in tumor at 10 mg/kg/day, ip administered five times per week for 4 weeks by LC-MS analysis; format: functional
# [22] = test system: MIA PaCa-2; assay: Antitumor activity against human MIA PaCa-2 cells xenografted in athymic BALB/c-nu mouse assessed as fold change in nicotinamide level in tumor at 10 mg/kg/day, ip administered five times per week for 4 weeks by LC-MS analysis; format: functional
# [23] = test system: MIA PaCa-2; assay: Antitumor activity against human MIA PaCa-2 cells xenografted in athymic BALB/c-nu mouse assessed as fold change in cytidine 5'-monophosphate level in tumor at 2 mg/kg/day, ip administered five times per week for 4 weeks by LC-MS analysis; format: functional
# [24] = test system: MIA PaCa-2; assay: Antitumor activity against human MIA PaCa-2 cells xenografted in athymic BALB/c-nu mouse assessed as fold change in D-glucosamine 6-phosphate level in tumor at 2 mg/kg/day, ip administered five times per week for 4 weeks by LC-MS analysis; format: functional
# [25] = test system: MIA PaCa-2; assay: Antitumor activity against human MIA PaCa-2 cells xenografted in athymic BALB/c-nu mouse assessed as fold change in hypoxanthine level in tumor at 2 mg/kg/day, ip administered five times per week for 4 weeks by LC-MS analysis; format: functional
# [26] = test system: MIA PaCa-2; assay: Antitumor activity against human MIA PaCa-2 cells xenografted in athymic BALB/c-nu mouse assessed as fold change in alanine level in tumor at 2 mg/kg/day, ip administered five times per week for 4 weeks by LC-MS analysis; format: functional
# [27] = test system: MIA PaCa-2; assay: Antitumor activity against human MIA PaCa-2 cells xenografted in athymic BALB/c-nu mouse assessed as fold change in glutamic acid level in tumor at 2 mg/kg/day, ip administered five times per week for 4 weeks by LC-MS analysis; format: functional
# [28] = test system: MIA PaCa-2; assay: Antitumor activity against human MIA PaCa-2 cells xenografted in athymic BALB/c-nu mouse assessed as fold change in tetramethyl urea level in tumor at 2 mg/kg/day, ip administered five times per week for 4 weeks by LC-MS analysis; format: functional
smiles,measurement,setting,value
COc1cc(O)c(C(=O)[C@@H]2CC=C(CCC=C(C)C)C[C@H]2c2ccccc2)c(O)c1,PC50,[1],3.4 µM
same,fold change (FC),[2],0.36
same,fold change (FC),[3],0.43
same,inhibition at 40 µM,[4],92%
same,inhibition at 40 µM,[5],99%
same,Activity,[6],Non-Toxic
same,inhibition in vivo at 2 mg/kg/day,[7],51%
same,Activity,[8],119 mg
same,Activity,[9],Active
same,fold change (FC),[10],0.41
same,fold change (FC),[11],0.5
same,inhibition,[12],inactive
same,inhibition,[13],inactive
same,inhibition,[14],inactive
same,fold change (FC),[15],0.61
same,fold change (FC),[16],0.36
same,fold change (FC),[17],0.31
same,fold change (FC),[18],0.16
same,fold change (FC),[19],0.44
same,fold change (FC),[20],0.22
same,fold change (FC),[21],0.4
same,fold change (FC),[22],0.39
same,fold change (FC),[23],0.4
same,fold change (FC),[24],0.4
same,fold change (FC),[25],0.57
same,fold change (FC),[26],0.49
same,fold change (FC),[27],0.41
same,fold change (FC),[28],0.76

# From ChEMBL document CHEMBL5321213, “Nicolaioidesin C: An Antiausterity Agent Shows Promising Antitumor Activity in a Pancreatic Cancer Xenograft Mouse Model” (J Nat Prod, 2023)
